Read-outs that look alike come from different tables or passages of the source. No end group written: not given here.
Key:
[1] = system: K12 E. coli; type: cell-based
Description: The antimicrobial activities of the peptides and their acetylated derivatives may be assessed using K-12 E. coli and assays based on an existing protocol used to study derivatives of hBD-3. The bacteria may be grown to mid-log phase in Luria Bertani (LB) broth. Aliquots of the culture may then be diluted (to a cell density of about 10^6 CFU/ml) into 10 mM sodium phosphate at a pH of about 7.5. Each of the aliquots may contain varied concentrations of peptide or acetylated peptide. The diluted bacterial cultures may then be incubated for about 2 hours at a temperature of about 37° C. After the proscribed time, serial dilutions of the assay cultures may be plated onto LB agar plates, and then allowed to incubate overnight at a temperature of about 37° C. After incubating, colonies may be counted. Dose-response curves may be prepared to calculate EC50's.
The antibacterial activities of the free and acetylated peptides may be determined using K12 E. coli and a known assay protocol. Bacteria may be incubated in Luria Bertani broth at 37° C. until reaching an OD600 of ˜0.8-˜1.1. Cell density may be monitored using optical density at 600 nm. Cells were then diluted to a concentration of 10^6 CFU/ml in ˜10 mM sodium phosphate (pH ˜7.5), containing varied concentrations of peptide or acetylated peptide. Peptide concentration used in the assays may range from 0 μg/ml to ˜100 μg/ml with intermediate concentrations varied for each peptide in order to maximize the number of data points in or near the transition region.
Assay cultures may be incubated at 37° C. for about two hours. Afterwards, serial dilutions of each assay culture may be prepared and then plated in triplicate onto Luria Bertani broth plates. The plates may be incubated at 37° C. overnight (˜16 h). Colonies may be counted the following morning.
Bacterial survival at each peptide concentration may be calculated according to the ratio of the number of colonies on the plates corresponding to the peptide concentration and the average number of colonies observed for assay cultures lacking peptide. The peptide concentration required to kill ˜50% of tile viable E. coli in the assay cultures (EC50) may be determined by plotting percent survival as a function of the log of peptide concentration (log μg/ml) and fitting the data, using GraphPad Prism (GraphPad Software, Inc., San Diego, Calif.), to Equation (1), which describes a sigmoidal dose-response.
In Equation (1), S is percent survival, ST and SB represent the upper and lower survival boundaries, X is the log of the peptide concentration, and H is the Hill slope of the transition region.
In fitting the data for all peptides and acetylated peptides (except acetylated Pep-1 and acetylated Pep-3), ST and SB may be restricted to values≦100% and ≧0% respectively. For acetylated Pep-1 and acetylated Pep-3, the absence of data points defining the lower boundary necessitated that SB be set to 0% in order to fit the data to Equation (1) and provide an estimated EC50 for these peptides.

[2] = system: E. coli BL21(DE3)
[3] = system: horse erythrocytes; type: cell-based
Description: Hemolytic activity may be assayed by, for example, incubating horse erythrocytes (e.g., Hemasource Inc. of Eugene, Oreg.). Varied peptide concentrations in phosphate buffered saline (e.g., Cellgro, produced by Mediatech, Inc. of Manassas, Va.) may be used for the incubation process. Hemolysis may be quantified by pelleting cells after incubation using centrifugation, and then measuring the absorbance of the supernatant at about 540 nm.
Hemolytic activities of the free and acetylated peptides may be determined using horse erythrocytes, in an assay adapted to a microtitre plate format. Cells may be prepared by centrifuging ˜1 ml of horse erythrocytes at 1620×g, and then resuspending the pelleted cells in ˜1 ml of 1× Dulbecco's phosphate-buffered saline (Dulbecco's PBS, Mediatech, Manassas, Va.). The cells may then be pelleted again. The process may be repeated (e.g., three more times). Following the final wash, the cells may be resuspended in ˜0.750 ml of PBS. Approximately two hundred microliters of washed erythrocyte suspension may then be diluted into ˜9800 μl of PBS to afford about 2% suspension. Aliquots of sterile water, peptide, and Dulbecco's PBS may then be combined in the wells of a 96 well microtitre plate so as to provide a gradient of peptide concentrations (0, ˜0.1, ˜1, ˜10, ˜100, and ˜1,000 μg/ml), to which the ˜2% erythrocyte may be added. […] An aliquot of supernatant (˜150 μl) from each well may then be transferred to a fresh microtitre plate, and the absorbance at ˜540 nm (heme) may be obtained for each solution. The percent hemolysis may be calculated based on the ratio of the absorption of supernatants from wells containing peptide and the absorption of supernatants from wells containing no peptide. In both cases, the recorded absorption may be adjusted for the background absorption of the plates.
Results of these assays appear in FIG. 21. […] Absorbance at 540 nm was used to monitor the release of hemoglobin by horse erythrocytes that have been incubated with varied concentrations of free peptide or acetylated peptide.

[4] = acetylated peptide, K12 E. coli, 10 mM sodium phosphate pH ~7.5, 2 h 37° C., 90% confidence range in parentheses, ‡ estimated values

In the case of “Ac-RGRK(Ac)SSRRK(Ac)K(Ac)-NH2 [acetylated Pep-3]”, the “Antimicrobial Activity (EC50), Acetylated” value [1, 4] is reported as ~70 µg/mL.

“Ac-RGRK(Ac)SSRRK(Ac)K(Ac)-OH [acetylated Pep-1]” was tested, and the “antimicrobial potency as percent of free Pep-1” value ([1]; K12 E. coli, from EC50 values) was ~5%, the “decrease in potency relative to free Pep-1” value ([1]; K12 E. coli, from EC50 values) was “sixteen” and the “LC90, Acetylated Peptide” value [2] was 94.40 µg/mL.

“Ac-RGRRSSRRK(Ac)K(Ac)-NH2 [acetylated Pep-4]” was tested, and the “Antimicrobial Activity (EC50), Acetylated” value ([1]; K12, 2 h) was 4.9 (4.2-5.8) μg/ml, the “antimicrobial potency as percent of free Pep-1” value ([1]; K12 E. coli, from EC50 values) was ~50% and the “LC90, Acetylated Peptide” value [2] was 1.49 µg/mL.

With “Ac-RGRRSSRRK(Ac)K(Ac)-OH [acetylated Pep-2]” the “Antimicrobial Activity (EC50), Acetylated” value ([1]; K12, 2 h) was ~8.1 µg/mL, the “antimicrobial potency as percent of free Pep-1” value ([1]; K12 E. coli, from EC50 values) was ~25% and the “Antimicrobial Activity (EC50), Acetylated” value [1, 4] was 8.1 (6.5-9.9) μg/ml.

For “RGRKSSRRKK [Pep-1, RGRKSSRRKK (SEQ ID NO:2)]”, the “Antimicrobial Activity (EC50), Free” value ([1]; K12, 2 h) was 2.4 (2.2-2.7) μg/ml, the “hemolytic activity (in words)” value [3] was “some low-level hemolytic activity” and the “LC90, Free Peptide” value [2] was 2.23 µg/mL.

With “RGRKSSRRKK-NH2 [Pep-3, RGRKSSRRKK-NH2 (SEQ ID NO:5)]” the “Antimicrobial Activity (EC50), Free” value ([1]; K12, 2 h) was 1.2 (1.1-1.2) μg/ml.

For “RGRRSSRRKK [Pep-2, RGRRSSRRKK (SEQ ID NO:3)]”, the “Antimicrobial Activity (EC50), Free” value ([1]; K12, 2 h) was 1.2 (1.1-1.3) μg/ml and the “hemolytic activity (in words)” value [3] was “some low-level hemolytic activity”.

For “RGRRSSRRKK-NH2 [Pep-4, RGRRSSRRKK-NH2 (SEQ ID NO:6)]”, the “hemolytic activity (in words)” value [3] was “some low-level hemolytic activity” and the “LC90, Free Peptide” value [2] was 0.15 µg/mL.
